Data taken from PubChem BioAssay (NCI).
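Following 48 hours of exposure in 96-well plates, responses at five concentrations were used to interpolate endpoints linearly. TGI: concentration producing complete growth inhibition.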

Columns and labels:
Test in all cases: NCI-60 cell line screen, 48 h
T-47D breast = test system: T-47D breast
NCI-H226 lung = test system: NCI-H226 lung
NCI/ADR-RES ovarian = test system: NCI/ADR-RES ovarian
MDA-MB-435 = test system: MDA-MB-435
NCI-H23 lung = test system: NCI-H23 lung
BT-549 breast = test system: BT-549 breast
DU-145 prostate = test system: DU-145 prostate
IGROV1 ovarian = test system: IGROV1 ovarian
CCRF-CEM leukemia = test system: CCRF-CEM leukemia
OVCAR-5 ovarian = test system: OVCAR-5 ovarian
TK-10 renal = test system: TK-10 renal
HOP-92 NSCLC = test system: HOP-92 NSCLC
OVCAR-4 ovarian = test system: OVCAR-4 ovarian
HCT-116 colon = test system: HCT-116 colon
SK-MEL-28 melanoma = test system: SK-MEL-28 melanoma
OVCAR-8 ovarian = test system: OVCAR-8 ovarian
K-562 leukemia = test system: K-562 leukemia
CAKI-1 renal = test system: CAKI-1 renal
UO-31 renal = test system: UO-31 renal
EKVX NSCLC = test system: EKVX NSCLC
UACC-257 melanoma = test system: UACC-257 melanoma
RPMI-8226 leukemia = test system: RPMI-8226 leukemia
HL-60(TB) leukemia = test system: HL-60(TB) leukemia
MCF7 breast = test system: MCF7 breast
SW-620 colon = test system: SW-620 colon
OVCAR-3 ovarian = test system: OVCAR-3 ovarian
SR leukemia = test system: SR leukemia
SK-MEL-2 melanoma = test system: SK-MEL-2 melanoma
M14 melanoma = test system: M14 melanoma
SNB-19 CNS = test system: SNB-19 CNS
RXF 393 renal = test system: RXF 393 renal
ACHN renal = test system: ACHN renal
SK-MEL-5 melanoma = test system: SK-MEL-5 melanoma
SF-539 CNS = test system: SF-539 CNS
HOP-62 NSCLC = test system: HOP-62 NSCLC
A498 renal = test system: A498 renal
SK-OV-3 ovarian = test system: SK-OV-3 ovarian
HCT-15 colon = test system: HCT-15 colon
786-0 renal = test system: 786-0 renal
SF-295 CNS = test system: SF-295 CNS
KM12 colon = test system: KM12 colon
U251 CNS = test system: U251 CNS
LOX IMVI melanoma = test system: LOX IMVI melanoma
SNB-75 CNS = test system: SNB-75 CNS
MOLT-4 leukemia = test system: MOLT-4 leukemia
SN12C renal = test system: SN12C renal
HT29 colon = test system: HT29 colon
PC-3 prostate = test system: PC-3 prostate
A549 NSCLC = test system: A549 NSCLC
COLO 205 colon = test system: COLO 205 colon
MDA-N = test system: MDA-N
MDA-MB-231 breast = test system: MDA-MB-231 breast
NCI-H522 lung = test system: NCI-H522 lung
SF-268 CNS = test system: SF-268 CNS
NCI-H460 lung = test system: NCI-H460 lung
HCC-2998 colon = test system: HCC-2998 colon
MALME-3M melanoma = test system: MALME-3M melanoma
HS 578T breast = test system: HS 578T breast
UACC-62 melanoma = test system: UACC-62 melanoma

SMILES: N#CC(C/C=C/c1ccccc1)NNC(=O)c1c(Cl)c(Cl)c(Cl)c(Cl)c1-c1nc2ccc(C(=O)c3ccccc3)cc2[nH]1 (stereo not drawn)
- TGI (T-47D breast): 63.8 µM
- TGI (NCI-H226 lung): 41.6 µM
- TGI (NCI/ADR-RES ovarian): 31 µM
- TGI (MDA-MB-435): 51.9 µM
- TGI (NCI-H23 lung): 55.8 µM
- TGI (BT-549 breast): 54.4 µM
- TGI (DU-145 prostate): 50.7 µM
- TGI (IGROV1 ovarian): > 100 µM
- TGI (CCRF-CEM leukemia): 20.3 µM
- TGI (OVCAR-5 ovarian): 94.7 µM
- TGI (TK-10 renal): 66 µM
- TGI (HOP-92 NSCLC): 73.3 µM
- TGI (OVCAR-4 ovarian): 73.9 µM
- TGI (HCT-116 colon): 62.2 µM
- TGI (SK-MEL-28 melanoma): > 100 µM
- TGI (OVCAR-8 ovarian): 37.1 µM
- TGI (K-562 leukemia): 55.2 µM
- TGI (CAKI-1 renal): > 100 µM
- TGI (UO-31 renal): > 100 µM
- TGI (EKVX NSCLC): 47.4 µM
- TGI (UACC-257 melanoma): > 100 µM
- TGI (RPMI-8226 leukemia): 50.2 µM
- TGI (HL-60(TB) leukemia): 54.5 µM
- TGI (MCF7 breast): 36.2 µM
- TGI (SW-620 colon): > 100 µM
- TGI (OVCAR-3 ovarian): 37.4 µM
- TGI (SR leukemia): 45.2 µM
- TGI (SK-MEL-2 melanoma): 45 µM
- TGI (M14 melanoma): 30.9 µM
- TGI (SNB-19 CNS): 35.8 µM
- TGI (RXF 393 renal): 39.8 µM
- TGI (ACHN renal): 97.3 µM
- TGI (SK-MEL-5 melanoma): 32 µM
- TGI (SF-539 CNS): 26.9 µM
- TGI (HOP-62 NSCLC): 24.8 µM
- TGI (A498 renal): 41.9 µM
- TGI (SK-OV-3 ovarian): 55.5 µM
- TGI (HCT-15 colon): 29.2 µM
- TGI (786-0 renal): 30.2 µM
- TGI (SF-295 CNS): 22.4 µM
- TGI (KM12 colon): > 100 µM
- TGI (U251 CNS): 25 µM
- TGI (LOX IMVI melanoma): 28.5 µM
- TGI (SNB-75 CNS): 46.4 µM
- TGI (MOLT-4 leukemia): 81.5 µM
- TGI (SN12C renal): 32.7 µM
- TGI (HT29 colon): 33.2 µM
- TGI (PC-3 prostate): 35.9 µM
- TGI (A549 NSCLC): 55.4 µM
- TGI (COLO 205 colon): 42 µM
- TGI (MDA-N): 19.4 µM
- TGI (MDA-MB-231 breast): 34.4 µM

SMILES: CC(C)(C)OC(=O)NC(CSCc1ccc(C(=O)c2ccccc2)cc1)C(=O)O (stereo not drawn)
- TGI (NCI-H226 lung): > 100 µM
- TGI (NCI/ADR-RES ovarian): > 100 µM
- TGI (MDA-MB-435): > 100 µM
- TGI (NCI-H23 lung): > 100 µM
- TGI (BT-549 breast): > 100 µM
- TGI (DU-145 prostate): > 100 µM
- TGI (IGROV1 ovarian): > 100 µM
- TGI (CCRF-CEM leukemia): > 100 µM
- TGI (OVCAR-5 ovarian): > 100 µM
- TGI (NCI-H522 lung): > 100 µM
- TGI (TK-10 renal): > 100 µM
- TGI (HOP-92 NSCLC): > 100 µM
- TGI (OVCAR-4 ovarian): > 100 µM
- TGI (HCT-116 colon): > 100 µM
- TGI (SK-MEL-28 melanoma): > 100 µM
- TGI (OVCAR-8 ovarian): > 100 µM
- TGI (SF-268 CNS): > 100 µM
- TGI (K-562 leukemia): > 100 µM
- TGI (CAKI-1 renal): > 100 µM
- TGI (UO-31 renal): > 100 µM
- TGI (EKVX NSCLC): > 100 µM
- TGI (UACC-257 melanoma): > 100 µM
- TGI (RPMI-8226 leukemia): > 100 µM
- TGI (HL-60(TB) leukemia): > 100 µM
- TGI (MCF7 breast): > 100 µM
- TGI (NCI-H460 lung): > 100 µM
- TGI (SW-620 colon): > 100 µM
- TGI (OVCAR-3 ovarian): > 100 µM
- TGI (SR leukemia): > 100 µM
- TGI (SNB-19 CNS): > 100 µM
- TGI (RXF 393 renal): > 100 µM
- TGI (ACHN renal): > 100 µM
- TGI (SK-MEL-5 melanoma): > 100 µM
- TGI (SF-539 CNS): > 100 µM
- TGI (HOP-62 NSCLC): > 100 µM
- TGI (A498 renal): > 100 µM
- TGI (HCT-15 colon): > 100 µM
- TGI (786-0 renal): > 100 µM
- TGI (SF-295 CNS): > 100 µM
- TGI (KM12 colon): > 100 µM
- TGI (HCC-2998 colon): > 100 µM
- TGI (U251 CNS): > 100 µM
- TGI (LOX IMVI melanoma): > 100 µM
- TGI (SNB-75 CNS): > 100 µM
- TGI (MALME-3M melanoma): > 100 µM
- TGI (MOLT-4 leukemia): > 100 µM
- TGI (SN12C renal): > 100 µM
- TGI (HT29 colon): > 100 µM
- TGI (PC-3 prostate): > 100 µM
- TGI (HS 578T breast): > 100 µM
- TGI (A549 NSCLC): > 100 µM
- TGI (COLO 205 colon): > 100 µM
- TGI (MDA-N): > 100 µM
- TGI (MDA-MB-231 breast): > 100 µM

SMILES: CN(C)c1ccc(/C=C2\C[C@H]3[C@@H]4CC=C5C[C@@H](O)CC[C@]5(C)[C@H]4CC[C@]3(C)C2=O)cc1
- TGI (T-47D breast): 62.8 µM
- TGI (NCI-H226 lung): 42.3 µM
- TGI (NCI/ADR-RES ovarian): 66.8 µM
- TGI (NCI-H23 lung): 81.2 µM
- TGI (BT-549 breast): > 100 µM
- TGI (DU-145 prostate): > 100 µM
- TGI (IGROV1 ovarian): 35.8 µM
- TGI (OVCAR-5 ovarian): 46.4 µM
- TGI (TK-10 renal): 39.3 µM
- TGI (OVCAR-4 ovarian): 48.2 µM
- TGI (UACC-62 melanoma): 32.6 µM
- TGI (HCT-116 colon): > 100 µM
- TGI (SK-MEL-28 melanoma): 40 µM
- TGI (OVCAR-8 ovarian): 19.1 µM
- TGI (SF-268 CNS): 27.7 µM
- TGI (K-562 leukemia): > 100 µM
- TGI (UO-31 renal): 18.9 µM
- TGI (EKVX NSCLC): 93.7 µM
- TGI (UACC-257 melanoma): 40.2 µM
- TGI (RPMI-8226 leukemia): > 100 µM
- TGI (HL-60(TB) leukemia): > 100 µM
- TGI (MCF7 breast): > 100 µM
- TGI (NCI-H460 lung): 33.7 µM
- TGI (SW-620 colon): > 100 µM
- TGI (OVCAR-3 ovarian): 66.8 µM
- TGI (SR leukemia): > 100 µM
- TGI (SK-MEL-2 melanoma): 41.4 µM
- TGI (M14 melanoma): 46 µM
- TGI (SNB-19 CNS): 39.3 µM
- TGI (RXF 393 renal): 43.9 µM
- TGI (ACHN renal): 34.8 µM
- TGI (SK-MEL-5 melanoma): > 100 µM
- TGI (SF-539 CNS): 27.9 µM
- TGI (HOP-62 NSCLC): 38.3 µM
- TGI (A498 renal): 38.2 µM
- TGI (SK-OV-3 ovarian): 63.7 µM
- TGI (HCT-15 colon): > 100 µM
- TGI (786-0 renal): 41 µM
- TGI (SF-295 CNS): 75.8 µM
- TGI (KM12 colon): > 100 µM
- TGI (U251 CNS): 25.9 µM
- TGI (LOX IMVI melanoma): 29 µM
- TGI (SNB-75 CNS): 57 µM
- TGI (MALME-3M melanoma): 39.6 µM
- TGI (MOLT-4 leukemia): > 100 µM
- TGI (SN12C renal): 54.9 µM
- TGI (HT29 colon): 56.2 µM
- TGI (PC-3 prostate): 29.3 µM
- TGI (A549 NSCLC): 44.4 µM
- TGI (COLO 205 colon): > 100 µM
- TGI (MDA-N): > 100 µM
- TGI (MDA-MB-231 breast): 36 µM
